Laboratory results taken from patent US12509437B2, “Substituted thiophene carboxamides and derivatives thereof as microbicides” (Bayer Aktiengesellschaft, priority 2019, dated 2025).

Test: LogP by HPLC on reversed phase columns (EEC directive 79/831 Annex V.A8)
Format: physicochemical
Conditions: method [a]
Description: [table] If more than one Log P value is available within the same method, all the values are given and separated by “+”. Calibration was done with straight-chain alkan2-ones (with 3 to 16 carbon atoms) with known Log P values (measurement of Log P values using retention times with linear interpolation between successive alkanones). Lambda-max-values were determined using UV-spectra from 200 nm to 400 nm and the peak values of the chromatographic signals.

Row | Compound | LogP
1 | CCSC(=O)C(CC(C)C)NC(=O)c1sc(Br)c(Br)c1C (centres unmarked) [I.007] | 5.03^[a]
2 | Cc1c(C(=O)NCC(=O)Sc2ccccc2)sc(Br)c1Br [I.011] | 4.10^[a]
3 | Cc1c(C(=O)NC(C#N)c2ccccc2)sc(Br)c1Br (centres unmarked) [I.029] | 3.85^[a]
4 | Cc1c(C(=O)NC(C#N)Cc2ccccc2)sc(Br)c1Br (centres unmarked) [I.030] | 4.01^[a]
5 | CCOC(=O)C(Cc1c[nH]c2ccccc12)NC(=O)c1sc(Br)c(Br)c1C (centres unmarked) [I.036] | 4.15^[a]
6 | CCOC(=O)CCNC(=O)c1sc(Cl)c(Cl)c1C [I.038] | 3.06^[a]
7 | CCSC(=O)C(CC(C)C)NC(=O)c1sc(Cl)c(Cl)c1C (centres unmarked) [I.041] | 5.00^[a]
8 | CCSC(=O)C(NC(=O)c1sc(Cl)c(Cl)c1C)C(C)C (centres unmarked) [I.042] | 4.69^[a]
9 | COC(=O)[C@H](CCC(N)=O)NC(=O)c1sc(Cl)c(Cl)c1C [I.046] | 2.06^[a]
10 | COC(=O)[C@@H](CC(N)=O)NC(=O)c1sc(Cl)c(Cl)c1C [I.054] | 2.05^[a]
11 | COC(=O)[C@H](CC(N)=O)NC(=O)c1sc(Cl)c(Cl)c1C [I.055] | 2.02^[a]
12 | CCOC(=O)CN(C)C(=O)c1sc(Cl)c(Cl)c1C [I.057] | 3.15^[a]
13 | CCOC(=O)C(C(C)C)N(C)C(=O)c1sc(Cl)c(Cl)c1C (centres unmarked) [I.059] | 4.44^[a]
14 | CON(C)C(=O)C(NC(=O)c1sc(Br)c(Br)c1C)C(C)C (centres unmarked) [I.061] | 3.71^[a]
15 | Cc1c(C(=O)NCC(N)=O)sc(Cl)c1Cl [I.062] | 1.75^[a]
16 | Cc1c(C(=O)NC(CO)C(=O)O)sc(Cl)c1Cl (centres unmarked) [I.067] | 1.84^[a]
17 | Cc1c(C(=O)NC(CC(N)=O)C(=O)O)sc(Cl)c1Cl (centres unmarked) [I.068] | 1.73^[a]
18 | Cc1c(C(=O)NC(CCC(N)=O)C(=O)O)sc(Cl)c1Cl (centres unmarked) [I.069] | 1.70^[a]
19 | Cc1c(C(=O)NC(Cc2c[nH]c3ccccc23)C(=O)O)sc(Br)c1Br (centres unmarked) [I.073] | 3.07^[a]
20 | COC(=O)CC1(NC(=O)c2sc(Cl)c(Cl)c2C)CC1 [I.082] | 2.98^[a]
21 | COC(=O)C(NC(=O)c1sc(Cl)c(Cl)c1C)C(=O)OC [I.084] | 3.01^[a]
22 | CCOC(=O)C(CC1CC1)NC(=O)c1sc(Cl)c(Cl)c1C (centres unmarked) [I.085] | 4.23^[a]
23 | COC(=O)C(NC(=O)c1sc(Cl)c(Cl)c1C)(C1CC1)C1CC1 [I.086] | 3.94^[a]

Row | Compound | LogP
24 | CCOC(=O)C(NC(=O)c1sc(Cl)c(Cl)c1C)C(=O)OCC [I.087] | 3.81^[a]
25 | CCOC(=O)C1(NC(=O)c2sc(Cl)c(Cl)c2C)CN(C(=O)OC(C)(C)C)C1 [I.088] | 4.15^[a]
26 | CCOC(=O)C(NC(=O)c1sc(Br)c(Br)c1C)C(=O)OCC [I.094] | 3.87^[a]
27 | Cc1c(C(=O)NC(C(=O)NC(C(=O)O)C2CC2)C2CC2)sc(Cl)c1Cl (centres unmarked) [I.096] | 2.67^[a]
28 | CCOC(=O)CN(OC)C(=O)c1sc(Br)c(Br)c1C [I.097] | 3.93^[a]
29 | CCOC(=O)CN(OC)C(=O)c1sc(Cl)c(Cl)c1C [I.098] | 3.87^[a]
30 | CCOC(=O)CNC(=S)c1sc(Cl)c(Cl)c1C [I.099] | 3.92^[a]
31 | COC(=O)[C@H](CCC(=O)O)NC(=O)c1sc(Cl)c(Cl)c1C [I.103] | 2.39^[a]
32 | CNC(=O)CNC(=O)c1sc(Cl)c(Cl)c1C [I.110] | 1.92^[a]
33 | CCOC(=O)C(NC(=O)c1sc(Br)c(Br)c1C)(OCC)C(C)C (centres unmarked) [I.112] | 4.80^[a]
34 | COC(=O)CNC(=S)c1sc(Cl)c(Cl)c1C [I.113] | 3.60^[a]
35 | COC(=O)C(C1CC1)N(O)C(=O)c1sc(Cl)c(Cl)c1C (centres unmarked) [I.114] | 3.13^[a]
36 | CCOC(=O)CN(O)C(=O)c1sc(Cl)c(Cl)c1C [I.116] | 2.95^[a]
37 | COC(=O)C(CCSC(C)=O)NC(=O)c1sc(Cl)c(Cl)c1C (centres unmarked) [I.117] | 3.59^[a]
38 | COC(=O)CC(NC(=O)c1sc(Cl)c(Cl)c1C)C(=O)OC (centres unmarked) [I.118] | 3.00^[a]
39 | COC(=O)[C@H](CSC(=O)N(C)C)NC(=O)c1sc(Cl)c(Cl)c1C [I.119] | 3.35^[a]
40 | CCNC(=O)SC[C@H](NC(=O)c1sc(Cl)c(Cl)c1C)C(=O)OC [I.120] | 3.22^[a]
41 | CNC(=S)SC[C@H](NC(=O)c1sc(Cl)c(Cl)c1C)C(=O)OC [I.121] | 3.33^[a]
42 | CCOC(=O)CC(NC(=O)c1sc(Cl)c(Cl)c1C)C(=O)OCC (centres unmarked) [I.123] | 3.76^[a]
43 | CCOC(=O)CCC(NC(=O)c1sc(Cl)c(Cl)c1C)C(=O)OCC (centres unmarked) [I.124] | 3.84^[a]
44 | COC(=O)[C@H](CC(=O)OC(C)(C)C)NC(=O)c1sc(Cl)c(Cl)c1C [I.125] | 4.17^[a]
45 | CCOC(=O)C(CSC(C)=O)NC(=O)c1sc(Cl)c(Cl)c1C (centres unmarked) [I.126] | 3.51^[a]

Results, then the compound that gave them:

Row | LogP | Compound
46 | 2.84^[a] | COC(=O)C1(NC(=O)c2sc(Br)c(Br)c2C)CCOC1 (centres unmarked) [I.004]
47 | 4.74^[a] | CCSC(=O)C(NC(=O)c1sc(Br)c(Br)c1C)C(C)C (centres unmarked) [I.008]
48 | 3.07^[a] | COC(=O)CC1(NC(=O)c2sc(Br)c(Br)c2C)CC1 [I.012]
49 | 3.79^[a] | CCOC(=O)C1(CNC(=O)c2sc(Br)c(Br)c2C)CC1 [I.013]
50 | 4.37^[a] | CCOC(=O)C1(C2(NC(=O)c3sc(Br)c(Br)c3C)CC2)CC1 [I.017]
51 | 3.99^[a] | CCOC(=O)C(CC(F)(F)F)NC(=O)c1sc(Br)c(Br)c1C (centres unmarked) [I.018]
52 | 2.50^[a] | Cc1c(C(=O)NCC2(C(=O)O)CC2)sc(Br)c1Br [I.019]
53 | 4.87^[a] | Cc1c(C(=O)NC2(C3(C(=O)OC(C)C)CC3)CC2)sc(Br)c1Br [I.020]
54 | 1.95^[a] | Cc1c(C(=O)NCC(=O)NC2(C(=O)O)CC2)sc(Br)c1Br [I.025]
55 | 2.59^[a] | Cc1c(C(=O)NCC#N)sc(Br)c1Br [I.026]
56 | 2.80^[a] | Cc1c(C(=O)NC2(C#N)CC2)sc(Br)c1Br [I.027]
57 | 3.64^[a] | Cc1c(C(=O)NC(C#N)C(C)C)sc(Br)c1Br (centres unmarked) [I.028]
58 | 3.68^[a] | COC(=O)C1(NC(=S)c2sc(Cl)c(Cl)c2C)CC1 [I.050]
59 | 2.58^[a] | Cc1c(C(=O)NC(C(N)=O)C(C)C)sc(Br)c1Br (centres unmarked) [I.051]
60 | 2.12^[a] | COC(=O)[C@@H](CC(N)=O)NC(=O)c1sc(Br)c(Br)c1C [I.052]
61 | 2.12^[a] | COC(=O)[C@H](CC(N)=O)NC(=O)c1sc(Br)c(Br)c1C [I.053]
62 | 4.51^[a] | CCOC(=O)C(C(C)C)N(C)C(=O)c1sc(Br)c(Br)c1C (centres unmarked) [I.058]
63 | 1.96^[a] | Cc1c(C(=O)NC2(C(N)=O)CC2)sc(Cl)c1Cl [I.063]
64 | 1.92^[a] | Cc1c(C(=O)NC(CO)C(=O)O)sc(Br)c1Br (centres unmarked) [I.071]

Row | LogP | Compound
65 | 1.77^[a] | Cc1c(C(=O)NC(CCC(N)=O)C(=O)O)sc(Br)c1Br (centres unmarked) [I.072]
66 | 2.92^[a] | Cc1c(C(=O)NC(C(=O)NCC#N)C(C)C)sc(Br)c1Br (centres unmarked) [I.075]
67 | 3.84^[a] | CCOC(=O)C(NC(=O)c1sc(Br)c(Br)c1C)C1CC1 (centres unmarked) [I.089]
68 | 4.23^[a] | CCOC(=O)C1(NC(=O)c2sc(Br)c(Br)c2C)CN(C(=O)OC(C)(C)C)C1 [I.090]
69 | 3.10^[a] | COC(=O)C(NC(=O)c1sc(Br)c(Br)c1C)C(=O)OC [I.091]
70 | 4.30^[a] | CCOC(=O)C(CC1CC1)NC(=O)c1sc(Br)c(Br)c1C (centres unmarked) [I.092]
71 | 4.01^[a] | COC(=O)C(NC(=O)c1sc(Br)c(Br)c1C)(C1CC1)C1CC1 [I.093]
72 | 4.15^[a] | CCOC(=O)C1(NC(=S)c2sc(Br)c(Br)c2C)CC1 [I.100]
73 | 2.91^[a] | Cc1c(C(=S)NC2(C(=O)O)CC2)sc(Br)c1Br [I.102]
74 | 2.46^[a] | COC(=O)[C@H](CCC(=O)O)NC(=O)c1sc(Br)c(Br)c1C [I.104]
75 | 4.09^[a] | CCOC(=O)C1(NC(=O)c2sc(Br)c(Br)c2C)CCCC1 [I.106]
76 | 2.82^[a] | COC(=O)C1(NC(=O)c2sc(Br)c(Br)c2C)CCOCC1 [I.107]
77 | 3.14^[a] | COC(=O)CC(C)NC(=O)c1sc(Br)c(Br)c1C (centres unmarked) [I.109]
78 | 2.31^[a] | Cc1c(C(=O)NC(C(=O)NO)C(C)C)sc(Br)c1Br (centres unmarked) [I.115]
79 | 4.66^[a] | Cc1c(C(=S)NC2(C(=O)OC3CCC3)CC2)sc(Br)c1Br [I.127]
80 | 2.07^[a] | Cc1c(C(=O)NC2(C(N)=O)CC2)sc(Br)c1Br [I.129]
81 | 2.21^[a] | CNC(=O)C1(NC(=O)c2sc(Br)c(Br)c2C)CC1 [I.130]
82 | 2.94^[a] | Cc1c(C(=O)NC2(C(=O)NC3CCC3)CC2)sc(Br)c1Br [I.135]

Same assay, conditions: method [a]: LC-UV, acidic range, 0.1% formic acid in water and acetonitrile as eluent

Row | Compound | LogP
83 | Cc1c(C(=O)NC2CCSC2=O)sc(Cl)c1Cl (centres unmarked) [I.037] | 2.86^[a]
84 | COC(=O)[C@H](Cc1ccccc1)NC(=O)[C@H](CC(=O)O)NC(=O)c1sc(Cl)c(Cl)c1C [I.048] | 3.09^[a]
85 | COC(=O)[C@H](Cc1ccccc1)NC(=O)[C@H](CC(=O)O)NC(=O)c1sc(Br)c(Br)c1C [I.105] | 3.11^[a]

Further lines, results first:

Row | LogP | Compound
86 | 3.99^[a] | Cc1c(C(=O)NC2C(=O)SC2(C)C)sc(Br)c1Br (centres unmarked) [I.001]
87 | 3.04^[a] | Cc1c(C(=O)NC2CCSC2=O)sc(Br)c1Br (centres unmarked) [I.002]
88 | 3.04^[a] | Cc1c(C(=O)N[C@H]2CCSC2=O)sc(Br)c1Br [I.010]
89 | 2.41^[a] | Cc1c(C(=O)NC2CCOC2=O)sc(Br)c1Br (centres unmarked) [I.021]
90 | 2.10^[a] | Cc1c(C(=O)NC2CCCNC2=O)sc(Br)c1Br (centres unmarked) [I.022]
91 | 1.93^[a] | Cc1c(C(=O)NC2CCNC2=O)sc(Br)c1Br (centres unmarked) [I.064]
92 | 1.89^[a] | Cc1c(C(=O)NC2CNC(=O)C2)sc(Br)c1Br (centres unmarked) [I.065]
93 | 1.93^[a] | Cc1c(C(=O)NC2CCNC(=O)C2)sc(Br)c1Br (centres unmarked) [I.066]

Same assay, conditions: method [b]: LC-UV, neutral range, 0.001 molar ammonium acetate solution in water and acetonitrile as eluent

Row | LogP | Compound
94 | 2.97^[b] | Cc1c(C(=O)N[C@H]2CCSC2=O)sc(Cl)c1Cl [I.111]

Same assay, conditions: reversed phase HPLC columns; preparation examples; method not indicated; read-out: Log P

Row | chromatographic logP | Compound
95 | 2.17 | Cc1c(C(=O)NC2(C(=O)O)CC2)sc(Cl)c1Cl [1-{[(4,5-dichloro-3-methyl-2-thienyl)carbonyl]amino}cyclopropanecarboxylic acid]
